Reference: publication PMC12067128, “Macrocyclization: Enhancing Drug-like Properties of Discoidin Domain Receptor Kinase Inhibitors” (ACS Medicinal Chemistry Letters, 2025)
Converted amounts (≈) assume the structure as drawn.

Experiments:
[1] = log k'80 PLRP-S chromatographic descriptor; type: physicochemical; details: surrogate of log Dtol
Source text: (§1) Lipophilicity has been obtained in four different systems. BRlogD and ChromlogD are chromatographic surrogates of log Doct and, despite showing different values, are linearly correlated (Figure S4). Log k′ 80 PLRP-S is a surrogate of log Dtol. Log kw ^IAM mimics the interaction between the compounds and the phospholipids of membranes. The combination of the experimental lipophilicity descriptors is essential to evaluate lipophilicity in different regions of the membrane bilayer. This complete lipophilicity profile may give an idea of the permeability potential of poorly soluble compounds for which standard permeability measurements are unreliable. […] This is supported by its low IC50 value in the cell-based assay.

[2] = Chamelogk chameleonicity descriptor; type: physicochemical; details: >0.6 = chameleons, <0.6 = non-chameleons
Method: Finally, chameleonicity was measured with the recently described Chamelogk method (Table ), where 0.6 is the threshold value to distinguish chameleons from non-chameleons.

Kinetic solubility = type: physicochemical; details: for solubility kinetic at 2 h: phosphate buffered saline, PBS pH 7.4, 2% DMSO, 2 h room temperature, assay range 5-200 µM, read-out: KS (kinetic solubility)
Method: Using a stock solution of test compound in 100% DMSO, duplicate dilutions were prepared at a nominal concentration of 200 µM in 0.1 M phosphate buffered saline (PBS) at pH 7.4, with a 2% final DMSO content. Test compound calibration standards were prepared at 200 µM and 10 µM in 100%
DMSO. The PBS and DMSO dilutions were equilibrated on a shaking platform at room temperature for two hours prior to filtration using a Multiscreen HTS solubility filter plate (Millipore). Filtrates were analysed by LC-UV-MS and the concentration of compound in PBS filtrate determined by comparing the UV absorbance peak with that of the two DMSO calibration standards. Mass spectrometry will be used to confirm the presence of the expected molecular ion in the UV peak measured. The effective range of the assay is 5 – 200 µM. […]

[3] = ChromLogD chromatographic lipophilicity; type: physicochemical; details: C18 column, pH 7.4
Method: The chromatographic method was based on the differential retention times of test compounds on a C18 column (Luna C18(2), 30 x 2mm, […], 100 Å) under controlled liquid chromatography conditions, comparing retention times with those of standards (Benzyl Alcohol, p-Nitrophenol, Bromobenzene, Anthracene) with known log D values. Stock solutions (10 mM in DMSO) of test compounds were diluted to a final concentration of 1 mM. The mobile phases consisted of A (20mM Ammonium Acetate buffered to pH 7.4 with ammonia hydroxide) and B (ACN). The LC gradient profile was the following: a linear increase to 90% B during 0.0 to 1.3 min, hold at 90 % B during 1.3 to 1.53 min then back to 0.0% B from 1.53 to 1.60 min, hold at 0% B until the end of the run (2.00 min). 1 μL of the sample volume was injected, using a flow rate of 0.5 mL/min and a column temperature of 40°C. All compounds were detected by UPLC/MS analysis using a a Waters ACQUITY UPLC equipped with a Photo Diode Array (PDA) detector coupled with a Waters ACQUITY QDa single quadrupole mass spectrometer with an Electrospray ionization (ESI) source.
The retention times were obtained by processing data in Waters Openlynx. The standards are then plotted in excel and the best fit line was used as the basis for calculating the unknown LogD values from the retention times of the peaks obtained.

[4] = BRlogD chromatographic lipophilicity; type: physicochemical; details: XBridge Shield RP18, pH 7.0, 60% acetonitrile
Method: The original method was described in a previous paper.e Briefly, a HPLC Thermo Fisher Scientific Dionex Ultimate 3000 instrument equipped with a Low-Pressure Mixing Gradient Pump LPG-3400 SD, ACC-3000 autosampler with termostatable column compartment, a DAD-3000 RS Detector and Chromeleon Data System Version 7.2.10 was used. Deionized water and HPLC grade acetonitrile were used throughout. The mobile phases consisted of 20 mM ammonium acetate at pH 7.0 and acetonitrile 60% v/v. Samples were dissolved in a 1:1 mixture of buffer/acetonitrile in the concentration range of 50–100 ug/mL. A 10uL volume of each solution was injected at 30°C and flow rate was 1 mL/min. The dead time, t0, was determined by monitoring the baseline disturbance.
retention time (tR) was measured on a XBridgeTM Shield RP18 (Waters, 5cm x 4.6 mm, 5 µm particle size, 130Å pore size). Isocratic log k’ (capacity factor k’ = (tR - t0)/t0) values were measured. The relationship between log D and log k’60 has been determined previously and is reported below (Eq.
We termed this log D as BRlogD.

[5] = Δlog kW IAM polarity descriptor; type: physicochemical; details: polarity in aqueous medium
Method: Polarity is quantified by two descriptors: EPSA and Δlog kw ^IAM. The first is measured in an almost fully nonpolar environment, and the second describes polarity in an aqueous medium. […] This is also in line with the higher solubility of KIMCs over 1.

[6] = log kW IAM (immobilized artificial membrane chromatography); type: physicochemical; details: lipophilicity descriptor, phospholipid interaction
Source text: as §1

DDR1 = target: T1, DDR1 (Homo sapiens, UniProt Q08345); assay: PathHunter U2OS DDR1 Functional Assay (DDR1 cellular assay); type: cell-based; details: U2OS PathHunter cells, collagen II stimulation; read-out: Cell DDR1 IC50
T1 construct: ProLink™ (PK) tagged full-length DDR1b; host or cells: U2OS human osteosarcoma cells (PathHunter U2OS DDR1)
T1 sequence (Q08345 19-913): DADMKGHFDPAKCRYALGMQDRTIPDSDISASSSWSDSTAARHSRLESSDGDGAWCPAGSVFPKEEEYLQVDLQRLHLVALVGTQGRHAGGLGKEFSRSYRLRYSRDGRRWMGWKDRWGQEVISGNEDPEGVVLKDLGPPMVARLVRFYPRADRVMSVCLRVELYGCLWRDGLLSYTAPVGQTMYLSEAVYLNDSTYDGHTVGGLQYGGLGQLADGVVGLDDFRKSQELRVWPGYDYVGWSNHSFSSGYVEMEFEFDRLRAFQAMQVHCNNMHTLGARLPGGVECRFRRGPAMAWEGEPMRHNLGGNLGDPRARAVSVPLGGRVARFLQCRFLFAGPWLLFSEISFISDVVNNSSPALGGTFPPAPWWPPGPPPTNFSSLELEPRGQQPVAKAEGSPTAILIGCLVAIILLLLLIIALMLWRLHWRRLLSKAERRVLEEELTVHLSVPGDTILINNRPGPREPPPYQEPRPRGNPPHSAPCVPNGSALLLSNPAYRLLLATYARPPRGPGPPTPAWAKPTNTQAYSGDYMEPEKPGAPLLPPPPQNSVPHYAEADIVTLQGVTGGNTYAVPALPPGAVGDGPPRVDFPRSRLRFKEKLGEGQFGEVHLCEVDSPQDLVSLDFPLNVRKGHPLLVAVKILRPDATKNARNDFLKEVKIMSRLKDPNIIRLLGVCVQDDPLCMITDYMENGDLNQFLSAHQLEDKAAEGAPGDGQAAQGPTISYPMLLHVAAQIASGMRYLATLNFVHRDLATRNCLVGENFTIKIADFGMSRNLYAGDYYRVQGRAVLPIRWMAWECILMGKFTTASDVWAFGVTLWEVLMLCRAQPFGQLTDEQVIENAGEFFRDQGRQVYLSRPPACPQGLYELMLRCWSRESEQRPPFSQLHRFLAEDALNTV
Method: page 17: In vitro Biology DDR1 cellular assay The activity of Discoidin Domain-containing Receptor protein kinase (DDR) inhibitors was determined using the PathHunter® U2OS DDR1 Functional Assay which employs Enzyme Fragment Complementation (EFC) technology, where the β-galactosidase (β-gal) enzyme is split into two fragments, ProLink (PK) and Enzyme Acceptor (EA). Independently these fragments […] β-gal enzyme. In the PathHunter® U2OS DDR1 Functional Assay, the U2OS human osteosarcoma cell line is modified to co-express a ProLinkTM (PK) tagged full-length DDR1b and an Enzyme Acceptor (EA) tagged SH2 domain. Collagen II, as a ligand, induces activation of DDR1b which results in cross-phosphorylation. The SH2-EA fusion protein then specifically binds the phosphorylated receptor resulting in complementation of the two fragments of β-gal and formation of a functional enzyme. β-gal activity is then quantitatively detected using a chemiluminescent substrate. PathHunter® Human U2OS DDR1 cells were prepared in AssayCompleteTM Cell Plating 16 Reagent (DiscoverX 93-0563R16A) and plated at 5000 cells/well in a 384-well white, clear-bottom, sterile plate (ThermoFisher 142762) and incubated for 90 minutes at 37 °C, 5% CO2. Test compounds were serially diluted from a top concentration of 10 mM (1000x final assay concentration) directly in a 384-well low-volume polypropylene plate (Greiner bio-one 784201) using an Echo 555 acoustic liquid handler (Labcyte). Test compounds were diluted in AssayCompleteTM Cell Plating 16 Reagent then added to cells using an Integra ViaFlow384 electronic reagent dispenser and pre-incubated at 37 °C, 5% CO2 for 30 minutes. Following compound pre-incubation, the cells were stimulated with 20 μg/ml Bovine Type II Collagen (DiscoverX 92-1090) with incubation for 20 hours at 37 °C, 5% CO2. Next, PathHunter Detection Reagent (DiscoverX 93-[…]) was added to the cells, incubated for 60 minutes at 25 °C in the dark, prior to capturing the chemiluminescent signal on a PHERAstar (BMG LABTECH). The percentage of inhibition was calculated for each concentration of compound using a 0.1% DMSO vehicle/Collagen II control response as a 0% inhibition and a 10 nM Dasatinib/Collagen II positive 17 page 18: control response as a 100% inhibition. The final assay concentration of the top of the test compound CRC was 10 μM. 18

For `Cn1cc2c3nc(ncc31)Nc1cnn(c1)CCCNCCOc1ccc-2cc1` [Compound 5a], the “logk'80 PLRP-S” value [1] was -0.65, the Chamelogk [2] was 1.76 and the “kinetic solubility (in words)” value (Kinetic solubility) was “less soluble”. For the same molecule, the solubility kinetic at 2 h (Kinetic solubility) was 20 ± 3 µM (≈ 7.79 µg/mL), the chromatographic logD [3] was 1.75 and the BRlogD [4] was 0.64. For the same molecule, the “Δlog kW^IAM” value [5] was 2.77, the “log kW^IAM” value [6] was 2.33 and the IC50 (DDR1) was 0.125 µM.

In the case of `Cn1cc2c3nc(ncc31)Nc1cnn(c1)CCCNC(=O)COc1ccc-2cc1` [Compound 5b], the “logk'80 PLRP-S” value [1] is reported as -0.68, the Chamelogk [2] is reported as 0.61 and the “kinetic solubility (in words)” value (Kinetic solubility) is reported as “less soluble”. For the same molecule, the solubility kinetic at 2 h (Kinetic solubility) was 16 ± 1 µM (≈ 6.46 µg/mL), the chromatographic logD [3] was 1.52 and the BRlogD [4] was 0.53. For the same molecule, the “Δlog kW^IAM” value [5] was 2.41, the “log kW^IAM” value [6] was 1.87 and the IC50 (DDR1) was 2 µM.

With `c1cc2nc(n1)Nc1cnn(c1)CCCNCCOc1ccc(cc1)N2` [Compound 6a] the “logk'80 PLRP-S” value [1] was -0.93, the Chamelogk [2] was 1.63 and the “kinetic solubility (in words)” value (Kinetic solubility) was “highly soluble”. It also gave a solubility kinetic at 2 h (Kinetic solubility) of 188 ± 18 µM (≈ 66.1 µg/mL), a chromatographic logD [3] of 1.15 and a BRlogD [4] of -0.29. The “Δlog kW^IAM” value [5] was 3.26, the “log kW^IAM” value [6] was 1.96 and the IC50 (DDR1) was 1.25 µM.

With `O=C1COc2ccc(cc2)Nc2ccnc(n2)Nc2cnn(c2)CCCN1` [Compound 6b] the “logk'80 PLRP-S” value [1] was -0.85, the Chamelogk [2] was 1.95 and the “kinetic solubility (in words)” value (Kinetic solubility) was “highly soluble”. For the same molecule, the solubility kinetic at 2 h (Kinetic solubility) was 198 ± 3 µM (≈ 72.3 µg/mL), the chromatographic logD [3] was 1.17 and the BRlogD [4] was -0.03. For the same molecule, the “Δlog kW^IAM” value [5] was 2.58, the “log kW^IAM” value [6] was 1.53 and the IC50 (DDR1) was over 3.15 µM.
